Patent US9707126B2, “Systems and methods for corneal cross-linking with pulsed light” (Avedro, Inc., priority 2009, dated 2017)
Entries after “also recorded” stand apart in the source; their conditions may differ.

What was measured:
porcine cornea [1] = assay: Fluorescence of digested 200 μm corneal flaps, continuous wave versus pulsed illumination (Example 4); conditions: for fluorescence at 455 nm: 0.1% Riboflavin, 200 μm flap
Method: In another corroborating experiment porcine whole globes (SiouxPreme Packing Co., Sioux City, Iowa; shipped in saline solution packed in ice) were warmed to room temperature (25 C). The corneas were then de-epithelialized with a dulled scalpel blade and 0.1, Riboflavin solution in 0.9% saline was applied to the top of each cornea during 20 minutes before cross-linking in an incubator. Corneas were pan-corneally irradiated with a top hat beam (3% root mean square) for a determined amount of time with 365-nm light source (UV LED NCSU033B[T]; Nichia Co., Tokushima, Japan) at the chosen irradiance of 30 mW/cm^2 with either continuous wave illumination or pulsed illumination 3 seconds on/3 Seconds off. Corneal flaps (200 μm thick) were excised from the eyes with aid of Intralase femtosecond laser (Abbott Medical Optics, Santa Ana, Calif.). The average thickness of the corneal flaps was calculated as a difference between the measurements before and after the excision from the eyes with an ultrasonic Pachymeter (DGH Technology, Exton, Pa.).
The flaps were washed with distilled water until Riboflavin in the washing waters was not detectable by absorbance measurement at 455 nm (Thermo Scientific Evolution 300/600 UV-Vis Spectrophotometer, Thermo Fisher Scientific, Waltham, Mass.). […] Papain digests were centrifuged for 30 seconds at 2200×G (Mini centrifuge 05-090-100, Fisher Scientific), diluted 3 times with 1×PBS solution and fluorescence of the solutions was measured with excitation of λex=360 nm in a QM-40 Spectrofluorometer (Photon Technology Int., London, Ontario, Canada).
The fluorescence of the papain buffer was taken into account by measuring fluorescence in the absence of tissue and subtracting this value from the fluorescence of the samples. The results seen below corroborate that the amount of fluorescence seen which is directly related to the amount of cross-linking is greater for the pulsed vs. continuous wave illumination in nearly the same proportion as the biomechanical measurements taken of the same flaps.

porcine cornea [2] = assay: Force versus displacement of cross-linked corneal flaps, biaxial materials tester (Example 3)
Method: Upon arrival, porcine eyes have excess muscle tissue that was removed and placed in saline in the incubator (set to 37° C.) for 30 minutes. […] Eyes were removed from solution and physiological IOP was applied. Eyes were then placed under a UVA source and shutter system and irradiated according to the indicated protocol as shown in FIGS. 5A-5C. Riboflavin drops were applied every 1.5 minutes during UVA application. After being irradiated, the corneal thickness was measured with a pachymeter. The sample was then placed under the femto second laser and a ˜200 μm flap was cut. The flap was positioned in a biaxial materials tester (CS-BIO TESTER 5000, CellScale, Waterloo, ON Canada) and stretched until failure. The sample was then rinsed with distilled water and frozen for future papain digestion and fluorescence analysis.

porcine cornea [3] = assay: Cross-linking measured by fluorescence of digested corneal flaps at 450 nm (Example 5); conditions: 0.1% Riboflavin, humid oxygenated environment with pulsed UV light 30 mW/cm^2, 1.5 seconds on/3 seconds off, 9 minutes
Method: Pig eyes from an abattoir (SiouxPreme, Sioux City, Iowa) were rinsed in saline. Eyes were cleaned and the epithelium was removed. Eyes were placed on a stand in the middle of a large beaker filled part way with water with a tube bubbling compressed oxygen into the water. The oxygen was turned on at certain times during the experiment to create a humid oxygenated environment for the eye. Eyes were soaked for 20 minutes with 0.1% Riboflavin, dH2O solution in an incubator set at 37° C. by using a rubber ring to hold the solution on top. Corneas were pan-corneally irradiated with a top hat beam (3% root mean square) for a determined amount of time and irradiance (3 minutes CW at 30 mW/cm^2 with one drop of solution added every 30 seconds, or 30 minutes CW at 3 mW/cm^2 with one drop of solution added every minute, or 9 minutes for pulsed light—1.5 seconds on/3 seconds off—using a shutter system (Lambda SC Smart Shutter, Sutter Instrument, Novato, Calif.) at 30 mW/cm^2 with one drop of solution added every minute) with a 365-nm light source (UV LED NCSU033B[T]; Nichia Co., Tokushima, Japan). The irradiance was measured with a power sensor (model PD-300-UV; Ophir, Inc., Jerusalem, Israel) at the corneal surface. […]
FIG. 7A illustrates a graph of the amount of cross-linking measured by fluorescence of the digested corneal flaps at 450 nm. […]

[4] = Absorbance of Riboflavin before and after UVA irradiation (FIG. 3); type: physicochemical; conditions: 0.2 mm light path
Method: Referring now to FIG. 3, a graph illustrating absorbance for 0.2 mm light path of an initial sample of Riboflavin versus absorbance for 0.2 mm light path of reduced Riboflavin RfH2 after being irradiated for 3 minutes at an irradiance of 30 mW/cm^2. At a wavelength of 445 nm, the absorbance of the initial sample is about 0.543, while the absorbance of the irradiated sample is about 0.340.

porcine cornea [5] = assay: Collagen linked fluorescence in cross-linked corneal flaps at depths of 100 μm and 200 μm (Example 2)
Method: Porcine whole globes (SiouxPreme Packing Co., Sioux City, Iowa; shipped in saline solution packed in ice) were warmed to room temperature (25° C.). The corneas were then de-epithelialized with a dulled scalpel blade and 0.1, 0.25, or 0.5% riboflavin solution in 0.9% saline was applied to the top of each cornea during 20 minutes before cross-linking Corneas were pan-corneally irradiated with a top hat beam (3% root mean square) for a determined amount of time with 365-nm light source (UV LED NCSU033B[T]; Nichia Co., Tokushima, Japan) at the chosen irradiance (3 or 30 mW/cm^2) which was measured with a power sensor (model PD-300-UV; Ophir, Inc., Jerusalem, Israel) at the corneal surface.
Corneal flaps (each 100 μm thick, one after another) were excised from the eyes with aid of Intralase femtosecond laser (Abbott Medical Optics, Santa Ana, Calif.). The average thickness of the corneal flaps was calculated as a difference between the measurements before and after the excision from the eyes with an ultrasonic Pachymeter (DGH Technology, Exton, Pa.). The flaps were washed with distilled water until Riboflavin in the washing waters was not detectable by absorbance measurement at 455 nm (Thermo Scientific Evolution 300/600 UV-Vis Spectrophotometer, Thermo Fisher Scientific, Waltham, Mass.). […]

porcine corneal flaps = assay: Fluorescence of papain-digested corneal flaps treated with RFH2 solutions (Example 1)
Method: RFH2 was prepared by irradiation of Riboflavin solutions (with and without EDTA, 1% EDTA, 0.1% Riboflavin) and saturated with argon (to displace oxygen) in a shallow sealed quartz cuvette. Then, in the absence of additional UV light, porcine corneal flaps were immediately placed in those solutions. After 1-2 min this procedure was repeated with a fresh solution containing RFH2 several times. Corneal flaps then were washed with distilled water, digested with papain buffer, and their fluorescence was measured.

Row | Structure (SMILES) | fluorescence at 455 nm (porcine cornea [1]; 30 mW/cm^2 continuous illumination) | fluorescence at 455 nm (porcine cornea [1]; 30 mW/cm^2 pulsed light 3 seconds on/3 seconds off) | fluorescence at 455 nm, continuous less than pulsed (porcine cornea [1]; 30 mW/cm^2 continuous versus pulsed 3 seconds on/3 seconds off) | biomechanical stiffness (FIG. 5C) (porcine cornea [2]; 0.1% Riboflavin, 30 mW/cm^2 pulsed 3 seconds on/4.5 seconds off and 3 seconds on/3 seconds off) | biomechanical stiffness (FIG. 5C) (porcine cornea [2]; 0.25% Riboflavin, 3 mW/cm^2 continuous wave) | biomechanical stiffness (FIG. 7B) (porcine cornea [2]; 3 mW/cm^2 and 30 mW/cm^2 continuous wave illumination, versus pulsed with oxygen) | biomechanical stiffness (FIG. 5C) (porcine cornea [2]; 30 mW/cm^2 pulsed, 3 seconds on, 1.5, 0.75 and 0.25 seconds off (samples 5, 6, 7)) | biomechanical stiffness (FIG. 5C) (porcine cornea [2]; sample 1: 0.1% Riboflavin, 3 mW/cm^2 continuous wave) | biomechanical stiffness (FIG. 5B) (porcine cornea [2]; sample 2: 0.1% Riboflavin, 30 mW/cm^2 pulsed, 4.5 second exposure cycles, 3 seconds off) | biomechanical stiffness (FIG. 5A) (porcine cornea [2]; sample 2: 0.25% Riboflavin, 3 mW/cm^2 continuous wave vs. sample 3 at 30 mW/cm^2, 5.4 J/cm^2) | biomechanical stiffness (FIG. 7B) (porcine cornea [2]; sample 3: 30 mW/cm^2 pulsed light with oxygen, 3 seconds on/3 seconds off) | biomechanical stiffness (FIG. 5A) (porcine cornea [2]; sample 5: 30 mW/cm^2 continuous wave, total 35.1 J/cm^2 dose) | biomechanical stiffness (FIG. 5A) (porcine cornea [2]; sample 8: 0.1% Riboflavin, 30 mW/cm^2 pulsed 3 seconds on/3 seconds off) | amount of cross-linking by fluorescence of digested flaps at 450 nm (FIG. 7A) (porcine cornea [3]) | absorbance at 445 nm ([4]; initial sample) | corneal fluorescence at first 100 μm versus next 100 μm (porcine cornea [5]; 0.1, 0.25 or 0.5% Riboflavin, 3 or 30 mW/cm^2, dose 5.4 J/cm^2) | corneal fluorescence relative to non-cross-linked samples (porcine cornea [5]; first 100 μm, 0.1% Riboflavin solution, 3 mW/cm^2, dose 5.4 J/cm^2) | fluorescence of corneal samples (porcine corneal flaps; Riboflavin solution irradiated with a reducing agent, EDTA (1% EDTA, 0.1% Riboflavin)) | fluorescence of corneal samples versus samples washed with unexposed Riboflavin (porcine corneal flaps; preliminary UVA-exposed Riboflavin solutions, no further UV light) | absorbance at 445 nm ([4]; after irradiation for 3 minutes at 30 mW/cm^2)
1 | Cc1cc2nc3c(=O)[nH]c(=O)nc-3n(C[C@H](O)[C@H](O)[C@H](O)CO)c2cc1C [Riboflavin] | about 12000 counts/s | about 20,000 counts/s | about 40% | slightly lower biomechanical stiffness | lowest biomechanical stiffness out of samples 1 and 3-7 | lower biomechanical stiffness | in descending order | highest biomechanical stiffness | slightly lower biomechanical stiffness than samples 3 or 1 | dissimilar biomechanical stiffness | highest biomechanical stiffness | higher than that for samples 6, 7, 3, 4, and 1; also recorded: lower than that for sample 2 | higher than both the samples 6 and 7 | greatly increases the amount of cross-linking | about 0.543 | greater at first 100 μm than at the next 100 μm | highest corneal fluorescence |  |  | 
2 | Cc1cc2c(cc1C)N(C[C@H](O)[C@H](O)[C@H](O)CO)c1[nH]c(=O)[nH]c(=O)c1N2 [RfH2, Leuco-Deuteroflavin] |  |  |  |  |  |  |  |  |  |  |  |  |  |  |  |  |  | highest | higher | about 0.340
